For 25 molecules, inhibition and IC50 results are on record in patent publication US7125878B2, “Substituted pyrroline kinase inhibitors” (Janssen Pharmaceutica, priority 2002, dated 2006).

Several values for one entry are separate records, joined by “and”; a condition that tells them apart may be missing. Equal values may be shown once.

Test [1] addresses PKC-βII (Homo sapiens, UniProt P05771). Description: Protein Kinase C Histone-Based Assay, isozyme β-II. It is filed as biochemical.
Description: (§1) Compounds were evaluated for PKC isozyme selectivity using histone III as the substrate. […] 100 μg/mL phosphatidylserine, 20 μg/mL diacylglycerol, 30 μM ATP, 1 μCi [^33P]ATP and 200 μg/mL histone III. The reaction was incubated for 10 min at 30° C. Reactions were terminated by TCA precipitation and spotting on Whatman P81 filters. Filters were washed in 75 mM phosphoric acid and the radioactivity quantified by liquid scintillation counting.
Test [2] concerns the target T1, recombinant rabbit GSK-3β protein (Oryctolagus cuniculus, UniProt G1T8E2).
T1 construct: purchased New England Biolabs
Description: Glycogen Synthase Kinase-3 Assay (33P phosphorylation of PPI-2). The settings on record: for IC50: two numbers = data obtained on different days; for inhibition at 1 µM: two numbers = different days. It is filed as biochemical. The protocol:
Glycogen Synthase Kinase-3 Assay
Compounds were tested for the ability to inhibit recombinant rabbit GSK-3β protein using the following protocol. The test compound was added to a reaction mixture containing Protein Phosphatase Inhibitor-2 (PPI-2) (Calbiochem) (45 ng), rabbit GSK-3β protein (New England Biolabs) (0.75 units) and ^33P-ATP (1 μCi) in 50 mM Tris-HCl (pH 8.0), 10 mM MgCl2, 0.1% BSA, 1 mM DTT and 100 μM Sodium Vanadate. The mixture was reacted for 90 minutes at 30° C. to allow phosphorylation of the PPI-2 protein and then the protein in the reaction was precipitated using 10% TCA. The precipitated protein was collected on filter plates (MultiScreen-DV/Millipore), which were subsequently washed. Finally, the radioactivity was quantified using a TopCount Scintillation Counter (Packard). […] Staurosporine or Valproate, known inhibitors of GSK-3β, were used as a positive control for screening.

In test [3] the target is PKC-γ (Homo sapiens, UniProt P05129). Description: Protein Kinase C Histone-Based Assay, isozyme γ. The conditions noted are these: for inhibition at 1 µM / inhibition at 10 µM: read-out: PKC-γ % inhibition.
Description: as §1
The target in test [4] is PKC-α (Homo sapiens, UniProt P17252). Description: Protein Kinase C Histone-Based Assay, isozyme α. The settings on record: for inhibition at 1 µM / inhibition at 10 µM: read-out: PKC-α % inhibition.
Description: as §1

PKC-βII, sequence (P05771 1-673 isoform P05771-2): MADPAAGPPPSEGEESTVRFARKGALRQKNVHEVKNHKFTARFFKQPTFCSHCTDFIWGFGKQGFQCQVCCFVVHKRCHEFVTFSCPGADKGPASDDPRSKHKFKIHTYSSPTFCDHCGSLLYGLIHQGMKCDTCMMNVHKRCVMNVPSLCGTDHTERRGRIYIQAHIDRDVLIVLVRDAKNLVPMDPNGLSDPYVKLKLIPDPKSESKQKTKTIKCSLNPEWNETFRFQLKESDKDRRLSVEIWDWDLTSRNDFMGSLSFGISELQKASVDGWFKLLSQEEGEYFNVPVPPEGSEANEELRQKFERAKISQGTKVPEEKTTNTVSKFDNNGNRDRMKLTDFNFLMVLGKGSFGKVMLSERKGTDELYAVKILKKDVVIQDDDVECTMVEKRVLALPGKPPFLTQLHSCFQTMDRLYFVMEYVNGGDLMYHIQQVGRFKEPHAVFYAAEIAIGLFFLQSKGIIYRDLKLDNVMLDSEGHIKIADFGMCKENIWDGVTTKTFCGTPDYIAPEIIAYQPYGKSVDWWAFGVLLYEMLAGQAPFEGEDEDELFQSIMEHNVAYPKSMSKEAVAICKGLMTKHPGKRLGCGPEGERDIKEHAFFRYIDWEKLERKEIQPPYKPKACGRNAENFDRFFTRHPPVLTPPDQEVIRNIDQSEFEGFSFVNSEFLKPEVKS
T1 sequence (G1T8E2 1-432): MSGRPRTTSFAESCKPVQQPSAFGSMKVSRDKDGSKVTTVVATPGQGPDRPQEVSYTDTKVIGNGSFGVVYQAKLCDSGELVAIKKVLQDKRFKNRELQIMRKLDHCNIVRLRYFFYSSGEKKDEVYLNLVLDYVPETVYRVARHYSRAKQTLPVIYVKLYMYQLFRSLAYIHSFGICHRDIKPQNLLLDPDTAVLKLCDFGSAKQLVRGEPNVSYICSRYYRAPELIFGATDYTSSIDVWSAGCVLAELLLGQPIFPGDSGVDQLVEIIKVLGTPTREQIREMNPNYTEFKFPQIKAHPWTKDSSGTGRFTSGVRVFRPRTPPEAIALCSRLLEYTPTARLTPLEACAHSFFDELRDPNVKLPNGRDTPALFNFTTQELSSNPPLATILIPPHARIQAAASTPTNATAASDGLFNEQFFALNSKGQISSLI

In the case of `O=C1NC(=O)C(c2cn(CCCO)c3ncccc23)=C1c1ccccc1Cl` [Cpd 1, 3-(2-chlorophenyl)-4-[1-(3-hydroxypropyl)-1H-pyrrolo[2,3-b]pyridin-3-yl]-1H-pyrrole-2,5-dione], the inhibition (usually the share of the control response that was lost under treatment) at 1 µM in test [1] came out at 14%; in test [3], 48%; in test [4], 18%. In addition, the results for the inhibition at 10 µM in test [1], in test [3] and in test [4] were 81%, 43% and 2%, respectively. Moreover, the half-maximal inhibitory concentration (IC50) (in general, the concentration that inhibits the measured activity by half) in test [2] was 9 nM and 10 nM.

With `CN(C)CCCn1cc(C2=C(c3ccccc3Cl)C(=O)NC2=O)c2cccnc21` [Cpd 2, 3-(2-chlorophenyl)-4-[1-[3-(dimethylamino)propyl]-1H-pyrrolo[2,3-b]pyridin-3-yl]-1H-pyrrole-2,5-dione], the inhibition at 1 µM in test [1] came to 22%; in test [3], 46%; in test [4] it was 0%. Moreover, the inhibition at 10 µM in test [1] is 50%; in test [3], 54%; in test [4], 1%. Further, the IC50 in test [2] was 19 nM.

Turning to `O=C1NC(=O)C(c2cn(CCCO)c3ncccc23)=C1c1cccc2ccccc12` [Cpd 3, 3-[1-(3-hydroxypropyl)-1H-pyrrolo[2,3-b]pyridin-3-yl]-4-(1-naphthalenyl)-1H-pyrrole-2,5-dione], the inhibition at 1 µM in test [1] amounted to 30%; in test [3], 20%; in test [4], 0%. For the same molecule, the inhibition at 10 µM worked out at 89% in test [1], 31% in test [3] and 51% in test [4]. The IC50 in test [2] was 30 nM and 31 nM.

As for `CN(C)CCCn1cc(C2=C(c3cccc4ccccc34)C(=O)NC2=O)c2cccnc21` [Cpd 4, 3-[1-[3-(dimethylamino)propyl]-1H-pyrrolo[2,3-b]pyridin-3-yl]-4-(1-naphthalenyl)-1H-pyrrole-2,5-dione], the inhibition at 1 µM in test [1] worked out at 47%; in test [3] it was 48%; in test [4] it was 0%. The inhibition at 10 µM in test [1] stood at 84%; in test [3] it was 59%; in test [4], 34%. Besides, the inhibition at 0.1 µM in test [2] (@100 nM) came to 51%.

For `O=C1NC(=O)C(c2cn(CCCO)c3ncccc23)=C1c1csc2ccc(Cl)cc12` [Cpd 5, 3-(5-chlorobenzo[b]thien-3-yl)-4-[1-(3-hydroxypropyl)-1H-pyrrolo[2,3-b]pyridin-3-yl]-1H-pyrrole-2,5-dione], the inhibition at 1 µM in test [1] was 21%; in test [3], 44%; in test [4] it was 0%. The inhibition at 10 µM came to 81% in test [1], 57% in test [3] and 34% in test [4]. Besides, in test [2] (@400 nM), the inhibition at 0.4 µM was found to be 56%.

Regarding `CN(C)CCCn1nc(C2=C(c3cn(-c4ccc5ccccc5c4)c4ncccc34)C(=O)NC2=O)c2ccccc21` [Cpd 20, 3-[1-[3-(dimethylamino)propyl]-1H-indazol-3-yl]-4-[1-(2-naphthalenyl)-1H-pyrrolo[2,3-b]pyridin-3-yl]-1H-pyrrole-2,5-dione], the IC50 in test [1] (histone III substrate) was determined as 2 nM; in test [3], 151 nM; in test [4], 53 nM. The inhibition at 1 µM in test [2] is 21%.

Take `O=C1NC(=O)C(c2cn(CCCc3ccccc3)c3ncccc23)=C1c1cc2n(n1)CCC2` [Cpd 59, 3-(5,6-Dihydro-4H-pyrrolo[1,2-b]pyrazol-2-yl)-4-[1-(3-phenyl-propyl)-1H-pyrrolo[2,3-b]pyridin-3-yl]-pyrrole-2,5-dione]: the IC50 in test [2] was 519 nM and 424 nM.

As to `O=C1NC(=O)C(c2cn(CCCc3ccccc3)c3ncccc23)=C1c1cnccn1` [Cpd 60, 3-[1-(3-Phenyl-propyl)-1H-pyrrolo[2,3-b]pyridin-3-yl]-4-pyrazin-2-yl-pyrrole-2,5-dione], the IC50 in test [2] worked out at 625 nM.

Consider `O=C1NC(=O)C(c2cn(CCCc3ccccc3)c3ncccc23)=C1C1=CCCCO1` [Cpd 61, 3-(5,6-Dihydro-4H-pyran-2-yl)-4-[1-(3-phenyl-propyl)-1H-pyrrolo[2,3-b]pyridin-3-yl]-pyrrole-2,5-dione], for which the IC50 in test [2] was 714 nM and 635 nM.

For the molecule `COc1ncc(C2=C(c3cn(CCCC#N)c4ncccc34)C(=O)NC2=O)c(OC)n1` [Cpd 62, 4-{3-[4-(2,4-Dimethoxy-pyrimidin-5-yl)-2,5-dioxo-2,5-dihydro-1H-pyrrol-3-yl]-pyrrolo[2,3-b]pyridin-1-yl}-butyronitrile], the IC50 in test [2] is 36 nM and 35 nM.

For the molecule `N#CCCCn1cc(C2=C(c3cnccn3)C(=O)NC2=O)c2cccnc21` [Cpd 63, 4-[3-(2,5-Dioxo-4-pyrazin-2-yl-2,5-dihydro-1H-pyrrol-3-yl)-pyrrolo[2,3-b]pyridin-1-yl]-butyronitrile], the 50% inhibitory concentration (IC50) in test [2] was 77 nM and 102 nM.

`Cn1ccc(C2=C(c3cn(CCCC#N)c4ncccc34)C(=O)NC2=O)n1` [Cpd 64, 4-{3-[4-(1-Methyl-1H-pyrazol-3-yl)-2,5-dioxo-2,5-dihydro-1H-pyrrol-3-yl]-pyrrolo[2,3-b]pyridin-1-yl}-butyronitrile]: the IC50 in test [2] was 77 nM and 128 nM.

Take `O=C1NC(=O)C(c2cn(CCCOc3ccccc3)c3ncccc23)=C1c1cc2n(n1)CCC2` [Cpd 65, 3-(5,6-Dihydro-4H-pyrrolo[1,2-b]pyrazol-2-yl)-4-[1-(3-phenoxy-propyl)-1H-pyrrolo[2,3-b]pyridin-3-yl]-pyrrole-2,5-dione]: the IC50 in test [2] was 188 nM and 244 nM.

As to `Cn1nccc1C1=C(c2cn(CCCO)c3ncccc23)C(=O)NC1=O` [Cpd 66, 3-[1-(3-Hydroxy-propyl)-1H-pyrrolo[2,3-b]pyridin-3-yl]-4-(2-methyl-2H-pyrazol-3-yl)-pyrrole-2,5-dione], the IC50 in test [2] is 480 nM and 660 nM.

With `O=C1NC(=O)C(c2cn(CCCO)c3ncccc23)=C1c1ccoc1` [Cpd 67, 3-Furan-3-yl-4-[1-(3-hydroxy-propyl)-1H-pyrrolo[2,3-b]pyridin-3-yl]-pyrrole-2,5-dione], the IC50 in test [2] was 140 nM and 59 nM.

As to `O=C1NC(=O)C(c2cn(CCCO)c3ncccc23)=C1c1c[nH]c(=O)[nH]c1=O` [Cpd 68, 5-{4-[1-(3-Hydroxy-propyl)-1H-pyrrolo[2,3-b]pyridin-3-yl]-2,5-dioxo-2,5-dihydro-1H-pyrrol-3-yl}-1H-pyrimidine-2,4-dione], the inhibition at 1 µM in test [2] is 43%.

As for `Cn1ccc(C2=C(c3cn(CCC#N)c4ncccc34)C(=O)NC2=O)n1` [Cpd 69, 3-{3-[4-(1-Methyl-1H-pyrazol-3-yl)-2,5-dioxo-2,5-dihydro-1H-pyrrol-3-yl]-pyrrolo[2,3-b]pyridin-1-yl}-propionitrile], the IC50 in test [2] turned out to be 100 nM.

As to `CCCCC1=C(c2cn(CCCO)c3ncccc23)C(=O)NC1=O` [Cpd 70, 3-Butyl-4-[1-(3-hydroxy-propyl)-1H-pyrrolo[2,3-b]pyridin-3-yl]-pyrrole-2,5-dione], in test [2], the IC50 stood at 380 nM.

As to `COCCn1cc(C2=C(c3cnc(OC)nc3OC)C(=O)NC2=O)c2cccnc21` [Cpd 71, 3-(2,4-Dimethoxy-pyrimidin-5-yl)-4-[1-(2-methoxy-ethyl)-1H-pyrrolo[2,3-b]pyridin-3-yl]-pyrrole-2,5-dione], the IC50 in test [2] is 360 nM.

For `COc1ncc(C2=C(c3cn(Cc4ccccc4)c4ncccc34)C(=O)NC2=O)c(OC)n1` [Cpd 72, 3-(1-Benzyl-1H-pyrrolo[2,3-b]pyridin-3-yl)-4-(2,4-dimethoxy-pyrimidin-5-yl)-pyrrole-2,5-dione], in test [2], the inhibition at 1 µM came to 54%.

For the molecule `COc1ncc(C2=C(c3cn(CCc4ccccc4)c4ncccc34)C(=O)NC2=O)c(OC)n1` [Cpd 73, 3-(2,4-Dimethoxy-pyrimidin-5-yl)-4-(1-phenethyl-1H-pyrrolo[2,3-b]pyridin-3-yl)-pyrrole-2,5-dione], the 50% inhibitory concentration (IC50) in test [2] worked out at 100 nM.

Turning to `COc1ncc(C2=C(c3cn(CCCc4cccs4)c4ncccc34)C(=O)NC2=O)c(OC)n1` [Cpd 74, 3-(2,4-Dimethoxy-pyrimidin-5-yl)-4-[1-(3-thiophen-2-yl-propyl)-1H-pyrrolo[2,3-b]pyridin-3-yl]-pyrrole-2,5-dione], the inhibition at 1 µM in test [2] is 39%.

With `COc1ncc(C2=C(c3cn(CCOc4ccc(F)cc4)c4ncccc34)C(=O)NC2=O)c(OC)n1` [Cpd 75, 3-(2,4-Dimethoxy-pyrimidin-5-yl)-4-{1-[2-(4-fluoro-phenoxy)-ethyl]-1H-pyrrolo[2,3-b]pyridin-3-yl}-pyrrole-2,5-dione], the IC50 in test [2] was determined as 240 nM.

As for `COc1ncc(C2=C(c3cn(CCCOc4ccccc4)c4ncccc34)C(=O)NC2=O)c(OC)n1` [Cpd 76, 3-(2,4-Dimethoxy-pyrimidin-5-yl)-4-[1-(3-phenoxy-propyl)-1H-pyrrolo[2,3-b]pyridin-3-yl]-pyrrole-2,5-dione], the IC50 in test [2] was 43 nM and 59 nM.

`COc1ccccc1C1=C(c2cn(CCCNC(C)=O)c3ncccc23)C(=O)NC1=O` [Cpd 77, N-[3-[3-[2,5-dihydro-4-(2-methoxyphenyl)-2,5-dioxo-1H-pyrrol-3-yl]-1H-pyrrolo[2,3-b]pyridin-1-yl]propyl]-acetamide]: the inhibition at 1 µM in test [1] was 49%. For the same molecule, the IC50 in test [2] is 2 nM and 3 nM. Further, in test [4], the inhibition at 10 µM was 26%.
